{
  "source": "patent US9409923B2",
  "about": "“Drug-fluorophore complex for specific detection of tumor cells” (KOREA INSTITUTE OF SCIENCE AND TECHNOLOGY, priority 2013, dated 2016)",
  "key": {"[1]": {"settings": "in vivo; cited from earlier work"}, "[2]": {"test_system": "HCT-116 cells (colorectal cancer cells) including luciferase", "experiment": "Ex vivo imaging on liver sections excised from mice", "format": "in vivo", "settings": "FIGS. 3a-3d", "description": "(§1) Mice were anesthetized with intraperitoneal injection of ketamine and xylazine, and their abdomens were cut open. HCT-116 cells (colorectal cancer cells) including luciferase were added at a concentration of 1×10^6 cells to 20 μl saline solution and injected into the left lobe of the liver to induce tumors in the mice. Four weeks after cell injection, the tumors were imaged as follows:\n(§2) The compounds of Synthesis Examples 1-5 were dissolved in PBS (pH 7.4) to prepare 25 μM solutions. Mice were anesthetized intraperitoneally and their abdomens were open. 50 μl of each of the compounds was dropped using a 100 μl pipette. After 3 min, fluorescence and luminescence were observed using an imaging system (IVIS®).\nSimilarly to the procedure described above, ex vivo imaging was performed on liver sections excised from mice. The results are shown in FIGS. 3a to 3d (3a and 3b: fluorescence and luminescence images of the fluorophore, respectively; 3c and 3d: fluorescence and luminescence images of the drug-fluorophore complex, respectively)."}, "[3]": {"test_system": "HCT-116 cells (colorectal cancer cells) including luciferase", "experiment": "Specific in vivo imaging of tumor cells (fluorescence vs luminescence, IVIS) in mouse liver tumors", "design": "species or system Mice", "settings": "25 μM in PBS (pH 7.4), 50 μl dropped on open abdomen, observed after 3 min; FIGS. 2a-2d", "description": "as §1, §2\nFIGS. 2a to 2d are images showing fluorescence (2a) and luminescence (2b) from the fluorophore to which toremifene was not bonded, and images showing fluorescence (2c) and luminescence (2d) from the complex of the present invention in which the fluorophore was bonded to toremifene."}},
  "data": [
    {"smiles": "CC1(C)S[C@@H]2[C@H](NC(=O)[C@H](N)c3ccccc3)C(=O)N2[C@H]1C(=O)O", "note": "[Ampicillin]", "values": [
      {"measurement": "Volume of distribution", "setting": "[1]", "value": 0.38, "unit": "L/kg"}
    ]},
    {"smiles": "CNCCOc1ccc(/C(=C(/CCCl)c2ccccc2)c2ccccc2)cc1", "note": "[N-desmethyltoremifene]", "values": [
      {"measurement": "Volume of distribution", "setting": "[1]", "value": 8.3, "unit": "L/kg"}
    ]},
    {"smiles": "CC[N+]1=C(/C=C/C=C/C=C2/N(CCCCCC(=O)N(C)CCOc3ccc(/C(=C(/CCCl)c4ccccc4)c4ccccc4)cc3)c3ccc4c(S(=O)(=O)O)cc(S(=O)(=O)O)cc4c3C2(C)C)C(C)(C)c2c1ccc1c(S(=O)(=O)O)cc(S(=O)(=O)[O-])cc21", "note": "[Synthesis Example 3, N-desmethyl toremifene-FCR675 Carboxylic Acid Complex]", "values": [
      {"measurement": "fluorescence and luminescence in excised liver sections (ex vivo imaging)", "setting": "[2]", "value": "the same results of the in vivo imaging were observed in the ex vivo imaging"},
      {"measurement": "fluorescence in tumor-bearing liver compared with luminescence position", "setting": "[3]", "value": "fluorescence was observed in the section of the liver, which was the same as the position confirmed by luminescence"}
    ]}
  ]
}
